According to ChEMBL document CHEMBL3430912, “GSK Tres Cantos Anti-Kinetoplastid Screening (TCAKS) Data”:

Legend:
Trypanosoma cruzi [1] = test: GSK_TCAKS: pIC50 Trypanosoma cruzi viability assay using beta-GAL activity. This assay was run at single shot at 5uM compound concentration per well. The biological reagents consisted of NIH-3T3 host cells and trypomastigotes parasitic cells; both cell types were set to a 3.3 * 10^5 cells/mL dilution in assay DMEM by means of a CASY cell counter device using a 60um capillary. 6 uL of the mixture were dispensed per well (about 1 * 10^3 host-cells and 1 * 10^3 parasites) with a Multidrop Combi dispenser. […] In all wells, the percentage of DMSO never exceeded 0.5%. Plates incubated for four days at 37C, 5% CO2. The substrate used for the assay fluorescence intensity (FLINT) readout was resorufin-beta-D-galactopiranoside (Sigma-Aldrich) at 5uM per well. It was diluted in PBS supplemented with the soft detergent Igepal (Fluka).; type: functional, organism-based, Mus musculus; settings: Tulahuen, NIH3T3
Trypanosoma cruzi [2] = test: (§1) GSK_TCAKS: pIC50 Trypanosoma cruzi Imaging: Infected Cells. […] Cells were then washed once with PBS before infection. T. cruzi trypomastigotes, collected at days 5 to 8 after infection from LLC-MK2 parasite infected cultures, were allowed to swim out for 4h at 37C from a centrifuged pellet (2,500 rpm/10 min/room temperature). Trypomastigotes were then collected and counted in a CASY Cell Counter. Trypomastigotes, in supplemented DMEM, were added to H9c2 cultures in a multiplicity of infection of 1 and incubated for 18 h. Cells were washed once with PBS before incubation of the infected H9c2 monolayer with trypsin (Life-Technologies) to detach cells from the flask. Cells were counted in a CASY Cell Counter using a 150 um capillary and their density set at 5 * 10^4 cells per mL in supplemented assay DMEM. Infected H9c2 were dispensed into 384-well poly-lysine coated assay plates at 50uL per well using a Multidrop Combi dispenser. After seeding them, the plates were incubated at 37C, 5% CO2 for 72h. Cultures were then fixed and stained by addition of 50 uL of a solution containing 8% formaldehyde and 4 uM DRAQ5 DNA dye (BioStatus, UK) per well. […] Five images were collected per well for reliable statistical analysis. Automated image analysis was performed with a script developed on Acapella High Content Imaging and Analysis Software (PerkinElmer). Output: percentage of infected cells per well as a second infection marker.; type: functional, organism-based, Rattus norvegicus; settings: H9c2, 4 h
Trypanosoma cruzi [3] = test: GSK_TCAKS: pIC50 Trypanosoma cruzi Imaging: Amastigotes/Cell. […] Cells were then washed once with PBS before infection. T. cruzi trypomastigotes, collected at days 5 to 8 after infection from LLC-MK2 parasite infected cultures, were allowed to swim out for 4h at 37C from a centrifuged pellet (2,500 rpm/10 min/room temperature). Trypomastigotes were then collected and counted in a CASY Cell Counter. Trypomastigotes, in supplemented DMEM, were added to H9c2 cultures in a multiplicity of infection of 1 and incubated for 18 h. Cells were washed once with PBS before incubation of the infected H9c2 monolayer with trypsin (Life-Technologies) to detach cells from the flask. Cells were counted in a CASY Cell Counter using a 150 um capillary and their density set at 5 * 10^4 cells per mL in supplemented assay DMEM. Infected H9c2 were dispensed into 384-well poly-lysine coated assay plates at 50uL per well using a Multidrop Combi dispenser. After seeding them, the plates were incubated at 37C, 5% CO2 for 72h. Cultures were then fixed and stained by addition of 50 uL of a solution containing 8% formaldehyde and 4 uM DRAQ5 DNA dye (BioStatus, UK) per well. […] Five images were collected per well for reliable statistical analysis. Automated image analysis was performed with a script developed on Acapella High Content Imaging and Analysis Software (PerkinElmer). Output: number of amastigotes per cell as infection level measurement.; type: functional, organism-based, Rattus norvegicus; settings: H9c2, 4 h
Trypanosoma cruzi [4] = test: as §1, with “H2C9” for “Trypanosoma cruzi”, “H9c2 Host Cardiomyocytes.” for “Infected Cells.”, “Number” for “percentage”, “H9c2 Host Cardiomyocytes nuclei to determine drug-related cytotoxicity.” for “infected cells per well as a second infection marker.”; type: functional, organism-based, Rattus norvegicus; settings: H9c2, 4 h
Leishmania donovani [5] = test: GSK_TCAKS: pIC50 Leishmania donovani viability assay using fluorescence intensity. Assay plates (1536-well) were prepared by adding 30nL per well of compound. For single shot assay, the final compound concentration was 5uM. […] Briefly, eGFP LdBOB axenic amastigotes were harvested, fixed and counted in a CASY cell counter (Roche-Applied Science). A final concentration of 1.5 * 10^5 cells per well were prepared in amastigote media containing 500 U/mL penicillin/streptomycin (Invitrogen) and 6uL was dispensed to each experimental well using a Multidrop Combi dispenser (Thermo Scientific). 6uL of assay media was dispensed to control columns used as reference for 100% compound response. Following incubation for 72 h at 37C, 5% CO2, 2 uL of resazurin was added to each well at a final concentration of 0.5 mM in phosphate buffered saline (PBS) with IGEPAL (Sigma-Aldrich), 0.05% (v/v).; type: functional, organism-based
Leishmania donovani [6] = test: GSK_TCAKS: pIC50 Leishmania donovani Imaging: Infected Macrophages. Assay plates (384-well) were prepared by adding 250nL of compound to each well. For single shot assay, the final compound concentration was 5 uM. […] Automated image analysis was performed with a script developed on Acapella High Content Imaging and Analysis Software (PerkinElmer). Output: Percent of infected macrophage cells were reported for each well.; type: functional, organism-based, Homo sapiens; settings: THP-1
Leishmania donovani [7] = test: GSK_TCAKS: pIC50 Leishmania donovani Imaging: Amastigotes/Macrophages. Assay plates (384-well) were prepared by adding 250nL of compound to each well. For single shot assay, the final compound concentration was 5 uM. […] Automated image analysis was performed with a script developed on Acapella High Content Imaging and Analysis Software (PerkinElmer). Output: Average number of amastigotes per macrophage cell were reported for each well.; type: functional, organism-based, Homo sapiens; settings: THP-1
Leishmania donovani [8] = test: GSK_TCAKS: pIC50 Leishmania donovani Imaging: THP-1 Host Macrophages. Assay plates (384-well) were prepared by adding 250nL of compound to each well. For single shot assay, the final compound concentration was 5 uM. […] Automated image analysis was performed with a script developed on Acapella High Content Imaging and Analysis Software (PerkinElmer). Output: THP-1 cell count were reported for each well.; type: functional, organism-based, Homo sapiens
[9] = system: Trypanosoma brucei brucei; test: GSK_TCAKS: pIC50 Trypanosoma brucei viability assay using fluorescence intensity. Assay plates (1536-well) were prepared by dispensing 25nL of compound solution per well using an Echo acoustic dispenser (Labcyte).; type: functional, organism-based; settings: Lister 427, 2 h
[10] = system: Trypanosoma brucei brucei; test: GSK_TCAKS: pIC50 Trypanosoma brucei viability assay using luminiscence. Assay plates (1536-well) were prepared. T. brucei cultures were harvested and counted in a CASY cell counter. A parasite suspension was prepared at a final concentration of 5 * 10^4 cells/mL in complete HMI9 medium and 6uL was dispensed to all wells containing compounds using a Multidrop Combi dispenser. 6uL of HMI9 media with 0.4% DMSO were dispensed to control columns. Plates were incubated for 24 h at 37C, 5% CO2 then tempered for 10 min at room temperature. ATP content was quantified by adding 4 uL of CellTiter-Glo Reagent (Promega) according to the manufacturer's instructions. Luminescence was measured using a ViewLux.; type: functional, organism-based; settings: Lister 427, CASY
[11] = GSK_TCAKS: pIC50 HepG2 human cell line viability assay using luminiscence. […] Seeding density was checked to ensure that new mono-layers were not more than 50% confluent at the time of harvesting. Cell suspension was added to 500 mL of the same medium at a final density of 1.2 * 10^5 cells/mL. This cell suspension was dispensed (25 uL, 3000 cells per well) into 384-well clear-bottom plates using a Multidrop Combi dispenser. Prior to addition of the cell suspension, the screening compounds (250 nL) were pre-dispensed into the plates with an Echo liquid handler. Plates were incubated for 48 h at 37C, 5% CO2. After incubation, plates equilibrated at room temperature for 30 min before proceeding to develop the luminescent signal. The signal developer, CellTiter-Glo Reagent, was allowed to equilibrate at room temperature for 30 min and added to the plates (25uL per well) using a Multidrop Combi dispenser. Plates were left for 10 min at room temperature for stabilization and then read using a ViewLux.; type: toxicity, cell-based
[12] = target: Sterol 14-alpha demethylase (Trypanosoma cruzi (strain CL Brener), UniProt Q7Z1V1); test: GSK_TCAKS: pIC50 CYP51 from Trypanosoma cruzi.; type: functional
Chain of Sterol 14-alpha demethylase (Q7Z1V1 whole entry): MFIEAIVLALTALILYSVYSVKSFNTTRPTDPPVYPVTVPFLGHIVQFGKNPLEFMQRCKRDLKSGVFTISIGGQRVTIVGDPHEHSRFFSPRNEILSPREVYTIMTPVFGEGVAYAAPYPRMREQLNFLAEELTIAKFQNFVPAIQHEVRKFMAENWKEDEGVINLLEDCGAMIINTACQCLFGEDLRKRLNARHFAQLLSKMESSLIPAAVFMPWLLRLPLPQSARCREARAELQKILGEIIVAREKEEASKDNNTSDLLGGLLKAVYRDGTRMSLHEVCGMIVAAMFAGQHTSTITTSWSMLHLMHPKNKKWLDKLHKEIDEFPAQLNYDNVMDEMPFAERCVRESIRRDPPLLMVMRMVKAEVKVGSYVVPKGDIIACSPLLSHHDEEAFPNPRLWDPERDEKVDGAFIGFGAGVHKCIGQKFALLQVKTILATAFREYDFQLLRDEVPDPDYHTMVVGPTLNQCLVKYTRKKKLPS

Row | Structure (SMILES) | IC50 (Trypanosoma cruzi [1]) [µM] | IC50 (Trypanosoma cruzi [2]) [µM] | IC50 (Trypanosoma cruzi [3]) [µM] | IC50 (Trypanosoma cruzi [4]) [µM] | IC50 (Leishmania donovani [5]) [µM] | IC50 (Leishmania donovani [6]) [µM] | IC50 (Leishmania donovani [7]) [µM] | IC50 (Leishmania donovani [8]) [µM] | IC50 [9] [µM] | IC50 [10] [µM] | IC50 at 48 h [11] [µM] | IC50 [12] [µM]
1 | NCC(Cc1ccccc1)NC(=O)c1cnc(-c2c[nH]c3ncccc23)s1 (configuration not stated) | 2 | > 50.1 | 20 | 0.631 | > 50.1 | 15.8 | 12.6 | 6.31 | 0.398 | 1 | 79.4 | 1
2 | CN1CCC(N(C)c2nccc(N3CCN(C(=O)c4cccc(-c5cccnc5)c4)CC3)n2)CC1 | 0.316 | 1.26 | 1 | 7.94 | > 50.1 | 1.26 | 1.26 | 7.94 | 0.794 | 1 | 39.8 | 1.58
3 | Cc1ccnc(NS(=O)(=O)c2ccc(NC(=O)c3ccc([N+](=O)[O-])s3)cc2)n1 | 2 | 10 | 6.31 | 5.01 | 3.98 | 10 | 5.01 | 10 | 0.2 | 0.398 | 15.8 | 63.1
4 | O=C(c1cccc(Nc2ncc(-c3ccc4c(c3)OCO4)cn2)c1)N1CCSC1 | 2.51 | 0.251 | 0.2 | 1 | 1.26 | 2 | 1 | 12.6 | 12.6 | > 39.8 | 10 | 15.8
5 | CC(c1cc(Cl)cc(Cl)c1)N(C)c1ncc2c(N)nc(N)nc2n1 (configuration not stated) | 0.0631 | 0.002 | 0.001 | 7.94 | 0.794 | 0.794 | 0.251 | 31.6 | > 39.8 | 31.6 | 63.1 | 39.8
6 | NC(=O)c1cc(F)ccc1Nc1nc(N[C@H]2CC[C@H](O)CC2)ncc1Cl | 3.98 | 5.01 | 1.58 | 1.58 | 3.16 | 1.26 | 0.794 | 0.631 | 0.158 | 0.631 | > 100 | 31.6
7 | Cc1nc2c(-c3cccs3)c(C)nn2c(NCCO)c1C | 39.8 | 31.6 | 15.8 | > 50.1 | > 50.1 | > 50.1 | > 50.1 | > 50.1 | 0.126 | 0.2 | > 100 | > 100
8 | Cc1nn2c(O)c3c(nc2c1-c1ccc(F)cc1)CCCC3 | 1.58 | 2 | 0.794 | > 50.1 | 1.26 | > 50.1 | > 50.1 | > 50.1 | 0.398 | 0.631 | > 100 | > 100
9 | O=C(NCCc1ccn(-c2ccccc2)n1)C1CCCCC1 | 1.26 | 1 | 1 | > 50.1 | > 50.1 | > 50.1 | > 50.1 | > 50.1 | 0.251 | 0.316 | > 100 | 100
10 | CCOc1ccccc1C(=O)Nc1nnc(-c2ccc3c(c2)OCO3)s1 | 0.631 | 0.0794 | 0.0631 | > 50.1 | 0.794 | 0.501 | 0.316 | > 50.1 | > 39.8 | > 39.8 | > 100 | > 100
11 | Cc1cn[nH]c1C1CCCN(Cc2nc3ccccc3n2C)C1 (configuration not stated) | 3.16 | 20 | 10 | > 50.1 | 15.8 | 3.98 | 3.16 | 20 | 6.31 | 7.94 | 50.1 | 1.26
